Laboratory results taken from patent publication US20230348362A1, “LIPID COMPOUNDS AND LIPID NANOPARTICLE COMPOSITIONS” (Suzhou Abogen Biosciences Co., Ltd., priority 2021, published 2023).

What was measured:
Format in all cases: physicochemical
[1] = Apparent pKa of LNP formulations, TNS fluorescence assay; details: LNP cationic lipid/DSPC/cholesterol/DMG-PEG 50/10/38.5/1.5 mol %
Protocol: As reported in literature, the apparent pKa of LNP formulations correlates with the delivery efficiency of LNPs for nucleic acids in vivo. The apparent pKa of each formulation was determined using an assay based on fluorescence of 2-(p-toluidino)-6-napthalene sulfonic acid (TNS). LNP formulations comprising of cationic lipid/DSPC/cholesterol/DMG-PEG (50/10/38.5/1.5 mol %) in PBS were prepared as described above. TNS was prepared as a 300 μM stock solution in distilled water. LNP formulations were diluted to 0.1 mg/mL total lipid in 3 mL of buffered solutions containing 50 mM sodium citrate, 50 mM sodium phosphate, 50 mM sodium borate, and 30 mM sodium chloride where the pH ranged from 3 to 9. An aliquot of the TNS solution was added to give a final concentration of […] and following vortex mixing fluorescence intensity was measured at room temperature in a Molecular Devices Spectramax iD3 spectrometer using excitation and mission wavelengths of 325 nm and 435 nm. A sigmoidal best fit analysis was applied to the fluorescence data and the pKa value was measured as the pH giving rise to half-maximal fluorescent intensity.

[2] = Lipid nanoparticle size and polydispersity by dynamic light scattering; details: LNP of lipid/DSPC/cholesterol/PEG-lipid 50:10:38.5:1.5 encapsulating hEPO mRNA
Protocol: (§1) Briefly, a cationic lipid provided herein, DSPC, cholesterol, and PEG-lipid were solubilized in ethanol at a molar ratio of 50:10:38.5:1.5, and mRNA were diluted in 10 to 50 mM citrate buffer, pH=4. The LNPs were prepared at a total lipid to mRNA weight ratio of approximately 10:1 to 30:1 by mixing the ethanolic lipid solution with the aqueous mRNA solution at a volume ratio of 1:3 using a microfluidic apparatus, total flow rate ranging from 9-30 mL/min. Ethanol were thereby removed and replaced by DPBS using dialysis. Finally, the lipid nanoparticles were filtered through a […] sterile filter.
(§2) Lipid nanoparticle size were determined by dynamic light scattering using a Malvern Zetasizer Nano ZS (Malvern UK) using a […] backscatter detection mode. The encapsulation efficiency of lipid nanoparticles were determined using a Quant-it Ribogreen RNA quantification assay kit (Thermo Fisher Scientific, UK) according to the manufacturer's instructions.

[3] = Encapsulation efficiency of lipid nanoparticles, Quant-it Ribogreen RNA assay; details: LNP of lipid/DSPC/cholesterol/PEG-lipid 50:10:38.5:1.5 encapsulating hEPO mRNA
Protocol: as §1, §2

SMILES | Apparent Pka [1] | polydispersity [2] | size (nm) [2] [nm] | Encapsulation Efficiency [3] [%]
CCCCCCCCC(CCCCCC)CNC(=O)CCCCN(CCO)CCN(CCCCC(COC(=O)CCCCCCC)COC(=O)CCCCCCC)C1CCCC1 (stereo not shown) [Compound 227] | 6.872 | 0.048 | 83.54 | 91.70
CCCCCCCCCCCOC(=O)CCCCCN(CCN(CCCCCC(=O)OCC(CCCCCCCC)CCCCCCCC)CCNc1c(NC)c(=O)c1=O)C1CCC1 [Compound 82] | 6.599 | 0.066 | 67.32 | 91.54
CCCCCCCC(=O)OCC(CCCCN(CCO)CCCCN(CCCCC(COC(=O)CCCCCCC)COC(=O)CCCCCCC)C1CCCC1)COC(=O)CCCCCCC [Compound 181] | 6.995 | 0.154 | 119.3 | 94.10
CCCCCCCCC(CCCCCC)CNC(=O)CCCCCN(CCOCCO)CCN(CCCCC(COC(=O)CCCCCCC)COC(=O)CCCCCCC)C1CCCC1 (stereo not shown) [Compound 205] | 6.917 | 0.023 | 104.3 | 81.79
CCCCCCCCCCCCCCCCC(CN(CCO)CCN(CC(CCCCCCCCCCCCCCCC)OCCCCCCCC)C1CCC1)OCCCCCCCC (stereo not shown) [Compound 25] | 4.853 | 0.068 | 50.59 | 90.67
CCCCCCCC/C=C\CCCCCCCC(=O)OCCCCCN(CCN(CCO)CCCCCC(=O)OCC(CCCCCCCC)CCCCCCCC)C1CCCCC1 [Compound 109] | 6.348 | 0.032 | 78.27 | 92.54
CCCCCCC(=O)OCC(CCCCN(CCO)CCN(CCCCC(COC(=O)CCCCCC)COC(=O)CCCCCC)C1CCC1)COC(=O)CCCCCC [Compound 165] | 6.183 | 0.125 | 131.30 | 75.66
CCCCCCCCC(CCCCCCCC)CNC(=O)CCCCCN(CCO)CCN(CCCCCC(=O)NCC(CCCCCCCC)CCCCCCCC)C1CCCCC1 [Compound 13] | 6.633 | 0.105 | 60.71 | 83.3
CCCCCCCCCCCOC(=O)CCCCCN(CCN(CCO)CCCCCOC(=O)OCC(CCCCCCCC)CCCCCCCC)C1CCCCC1 [Compound 128] | 6.539 | 0.093 | 60.57 | 92.31
CCCCC/C=C\CCCOC(=O)CCCCCN(CCN(CCO)CCCCCC(=O)OCC(CCCCCCCC)CCCCCCCC)C1CCCCC1 [Compound 19] | 6.269 | 0.046 | 80.6 | 90.2
CCCCCCCCC(CCCCCC)CNC(=O)CCCCCN(CCOCCO)CCN(CCCCC(COC(=O)CCCCCCC)COC(=O)CCCCCCC)C1CCCCC1 (stereo not shown) [Compound 206] | 6.81 | 0.07 | 112.7 | 80.88
CCCCCCCCCCCOC(=O)CCCCCN(CCN(CCO)CCCCCC(=O)C(CCCCCC)CCCCCCCCC)C1CCCCC1 (stereo not shown) [Compound 46] | 6.335 | 0.042 | 64.14 | 90.3
CCCCCCCCCCCOC(=O)CCCCCN(CCN(CCO)CCCCCC(=O)OCC(CCCCCCCC)CCCCCCCC)C1CCC(F)(F)CC1 [Compound 49] | 6.153 | 0.1 | 55.04 | 95.5
CCCCCCCCOC(CCCCCN(CCO)CCN(CCCCCC(=O)NCC(CCCCCC)CCCCCCCC)C1CCCCCC1)OCCCCCCCC (stereo not shown) [Compound 202] | 6.738 | 0.042 | 84.35 | 88.47
CCCCCCCCC(CCCCCC)CNC(=O)CCCCN(CCO)CCN(CCCCC(COC(=O)CCCCCCC)COC(=O)CCCCCCC)C1CCCCCC1 (stereo not shown) [Compound 229] | 6.849 | 0.042 | 77.73 | 92.04
CCCCCCCCC(CCCCCCCC)COC(=O)CCCCCN(CCO)CCN(CCCCCOC(=O)N(CCCCCCCC)CCCCCCCC)C1CCCCC1 [Compound 127] | 6.226 | 0.090 | 69.05 | 91.77

Next, values leading:

Apparent Pka [1] | polydispersity [2] | size (nm) [2] [nm] | Encapsulation Efficiency [3] [%] | SMILES
5.708 | 0.092 | 54.55 | 88.2 | CCCCCCCCC(CCCCCCCC)COC(=O)CCCCCN(CCO)CCN(CCCCCC(=O)OCC(CCCCCCCC)CCCCCCCC)C1CCC(C)(C)CC1 [Compound 31]
6.305 | 0.052 | 57.51 | 87.6 | CCCCCCCCC(CCCCCCCC)COC(=O)CCCCCN(CCO)CCN(CCCCCC(=O)OCC(CCCCCCCC)CCCCCCCC)C1CCOC1 (stereo not shown) [Compound 33]
5.951 | 0.071 | 83.97 | 95.6 | CCCCCCCCC(CCCCCCCC)COC(=O)CCCCCN(CCN(CCCCCC(=O)OCC(CCCCCCCC)CCCCCCCC)C1CCC(O)CC1)C1CCC1 (stereo not shown) [Compound 55]
6.126 | 0.096 | 67.44 | 93.27 | CCCCCCCCC(CCCCCCCC)COC(=O)CCCCCN(CCNc1c(N(C)C)c(=O)c1=O)CCN(CCCCCC(=O)OCC(CCCCCCCC)CCCCCCCC)C1CCC1 [Compound 85]
6.686 | 0.039 | 57.5 | 95.5 | CCCCCCCCC(CCCCCCCC)CNC(=O)CCCCCN(CCO)CCN(CCCCCC(=O)OCC(CCCCCCCC)CCCCCCCC)C1CCCCC1 [Compound 23]
6.552 | 0.117 | 86.61 | 93.35 | CCCCCCCCC(CCCCCC)COC(=O)CCCCCN(CCCCN(CCO)CCCCC(COC(=O)CCCCCCC)COC(=O)CCCCCCC)C1CCCC1 (stereo not shown) [Compound 191]
6.159 | 0.046 | 66.04 | 90.1 | CCCCCCCCC(CCCCCCCC)COC(=O)CCCCCN(CC=C(C)C)CCN(CCO)CCCCCC(=O)OCC(CCCCCCCC)CCCCCCCC [Compound 42]
6.322 | 0.036 | 84.12 | 92.30 | CCCCCCCCC(CCCCCCCC)CNC(=O)CCCCCN(CCN(CCCO)CCCCCC(=O)OCC(CCCCCCCC)CCCCCCCC)C1CCC1 [Compound 76]
6.51 | 0.065 | 77.99 | 93.4 | CCCCCCCCCCCOC(=O)CCCCCN(CCN(CCO)CCCCCC(=O)OCC(CCCCCCCC)CCCCCCCC)C1CC(OC)C1 (stereo not shown) [Compound 54]
5.990 | 0.267 | 74.57 | 94.56 | CCCCCCCCC(CCCCCCCC)COC(=O)CCCCCN(CCO)CCN(CCCCCOC(=O)OCC(CCCCCCCC)CCCCCCCC)C1CCCCC1 [Compound 133]
6.566 | 0.035 | 67.07 | 88.68 | CCCCCCCCC(CCCCCC)CNC(=O)CCCCCCCN(CCO)CCN(CCCCC(COC(=O)CCCCCCC)COC(=O)CCCCCCC)C1CCCC1 (stereo not shown) [Compound 234]
6.702 | 0.174 | 57.44 | 92.96 | CCCCCCCCC(CCCCCCCC)COC(=O)CCCCCN(CCO)CCN(CCCCCC(=O)OCC(CCCCCCCC)CCCCCCCC)Cc1ccc(O)cc1 [Compound 56]
6.226 | 0.083 | 88.82 | 94.26 | CCCCCCCCC(CCCCCCCC)COC(=O)CCCCCN(CCCCCN(CCO)CCCCC(COC(=O)CCCCCCC)COC(=O)CCCCCCC)C1CCC1 [Compound 187]
6.443 | 0.044 | 104.2 | 93.10 | CCCCCCCCC(CCCCCCCC)COC(=O)CCCCCN(C/C=C/CN(CCCCCC(=O)OCC(CCCCCCCC)CCCCCCCC)C1CCC1)CCO [Compound 65]
6.914 | 0.104 | 69.09 | 96.26 | CCCCCCCCC(CCCCCCCC)COC(=O)CCCCCN(C)CCN(CCCCCC(=O)OCC(CCCCCCCC)CCCCCCCC)CCNc1c(NC)c(=O)c1=O [Compound 79]
